Source: patent US20250026747A1, “COLIBACTIN DERIVATIVES AND METHODS OF TREATING, AMELIORATING, AND/OR PREVENTING CANCER” (priority 2021, published 2025)

Tested on: linearized pUC19 DNA
Assay: DNA cross-linking assay with linearized pUC19 DNA, denaturing agarose gel electrophoresis
Format: biochemical
Settings: for DNA interstrand cross-link (ICL) formation: linearized pUC19 DNA
Protocol: FIGS. 6A-6C depict the DNA crosslinking ability of several compounds according to some embodiments. The DNA cross-linking assays employ linear pUC19 DNA. DMSO was used as vehicle (negative control), and 100 μM cisplatin was used as positive controls. The DNA was analyzed by 0.4% NaOH denaturing and agarose gel electrophoresis (90 V, 1.5 h). FIG. 6A depicts the DNA cross-linking comparison of colibactin 770 (3a), stable colibactin 742 (4), and its linear precursor 9 at pH 5.0. FIG. 6B depicts the comparison of the relative DNA cross-linking abilities of colibactin 742 (4) and its linear precursor 9 at pH 5.0. FIG. 6C depicts the comparison of the relative DNA cross-linking abilities of colibactin 742 (4) and its linear precursor 9 at pH 7.0.
FIG. 10 depicts the DNA cross-linking assay employing linear pUC19 DNA and synthetic colibactin (3), 9, and colibactin 742 (4) according to some embodiments. Specifically, 5% DMSO was used as vehicle (negative control), and 100 μM cisplatin was used as positive control. DNA ladder (Lane #1); 5% DMSO (Lane #2); 100 μM cisplatin (Lane #3); 200 μM colibactin (3) (Lane #4); 100 μM colibactin (3) (Lane #5); 10 μM colibactin (3) (Lane #6); 1 μM colibactin (3) (Lane #7); 200 μM 9 (Lane #8); 100 μM 9 (Lane #9); 10 μM 9 (Lane #10); 1 μM 9 (Lane #11); 200 μM colibactin 742 (4) (Lane #12); 100 μM colibactin 742 (4) (Lane #13); 10 μM colibactin 742 (4) (Lane #14); 1 μM colibactin 742 (4) (Lane #15). Conditions (Lane #3): linearized pUC19 DNA (15.4 μM in base pairs), 5% DMSO (vehicle), 100 μM cisplatin, 10 mM citric buffer, pH 5.0, 4 h, 37° C. Conditions (Lanes #4-#7): linearized pUC19 DNA (15.4 μM in base pairs), colibactin (3) (200 μM-1 μM), 5% DMSO, 10 mM citric buffer, pH 5.0, 4 h, 37° C. Conditions (Lanes #8-#11): linearized pUC19 DNA (15.4 μM in base pairs), 9 (200 μM-1 μM), 5% DMSO, 10 mM citric buffer, pH 5.0, 4 h, 37° C. Conditions (Lanes #12-#15): linearized pUC19 DNA (15.4 μM in base pairs), colibactin 742 (4) (200 μM-1 μM), 5% DMSO, 10 mM citric buffer, pH 5.0, 4 h, 37° C. The DNA was analyzed by native, 0.2% NaOH, 0.4% NaOH, and 1% NaOH denaturing agarose gel electrophoresis (90 V, 1.5 h). Linear=linearized DNA in native form, linear-denat.=linearized DNA in denaturing form, linear-XL=linerized DNA cross-linked by colibactins or cisplatin.
FIG. 11 depicts the DNA cross-linking assay employing linear pUC19 DNA and synthetic colibactin fragments 23, 24, and 22. Specifically, 5% DMSO was used as vehicle (negative control), and 100 μM cisplatin was used as positive control. DNA ladder (Lane #1); 5% DMSO (Lane #2); 100 μM cisplatin (Lane #3); 500 μM 23 (Lane #4); 100 μM 23 (Lane #5); 10 μM 23 (Lane #6); 1 μM 23 (Lane #7); 100 nm 23 (Lane #8); 500 μM 24 (Lane #9); 100 μM 24 (Lane #10); 10 μM 24 (Lane #11); 1 μM 24 (Lane #12); 100 nm 24 (Lane #13); 500 μM 22 (Lane #14); 100 μM 22 (Lane #15); 10 μM 22 (Lane #16); 1 μM 22 (Lane #17); 100 nm 22 (Lane #18). Conditions (Lane #2): linearized pUC19 DNA (15.4 μM in base pairs), 5% DMSO (vehicle), 10 mM citric buffer, pH 5.0, 4 h, 37° C. Conditions (Lane #3): linearized pUC19 DNA (15.4 μM in base pairs), 5% DMSO (vehicle), 100 μM cisplatin, 10 mM citric buffer, pH 5.0, 4 h, 37° C. Conditions (Lanes #4-#8): linearized pUC19 DNA (15.4 μM in base pairs), 23 (500 μM-100 nM), 5% DMSO, 10 mM citric buffer, pH 5.0, 4 h, 37° C. Conditions (Lanes #9-#13): linearized pUC19 DNA (15.4 μM in base pairs), 24 (500 μM-1 μM), 5% DMSO, 10 mM citric buffer, pH 5.0, 4 h, 37° C. Conditions (Lanes #14-#18): linearized pUC19 DNA (15.4 μM in base pairs), 22 (500 μM-100 nM), 5% DMSO, 10 mM citric buffer, pH 5.0, 4 h, 37° C. The DNA was analyzed by native, 0.2% NaOH, 0.4% NaOH, and 1% NaOH denaturing agarose gel electrophoresis (90 V, 1.5 h). Linear=linearized DNA in native form, linear-denat.=linearized DNA in denaturing form, linear-XL=DSB/linerized DNA cross-linked by colibactins or cisplatin. […]

## CCOC(=O)c1csc(CNC(=O)CC2=C(C3=N[C@@H](C)CC3)C(=O)NC23CC3)n1 [compound 23, reference compound]
pH 5.0, 4 h, 37° C.
  DNA interstrand cross-link (ICL) formation: failed to form DNA ICLs

## C[C@H]1CCC(CC(=O)NC2(C(=O)CC(=O)NCC(=O)c3csc(CCc4csc(CNC(=O)CC(=O)C5(NC(=O)CC6=N[C@@H](C)CC6)CC5)n4)n3)CC2)=N1 [compound 9]
pH 5.0, 4 h, 37° C.
  DNA interstrand cross-link (ICL) formation: induced stable DNA ICLs
pH 7.0, 1 nM-100 μM
  DNA interstrand cross-link (ICL) formation: induced stable ICLs
pH 5.0
  concentration inducing stable DNA ICLs relative to 3a: ten-fold lower
pH 5.0, native, 0.2%, 0.4%, 1% NaOH gels
  stability of the ICLs under increasingly stringent denaturing conditions: comparable to those derived from 3a

## C[C@H]1CCC(C2=C(CC(=O)NCC(=O)c3csc(CCc4csc(CNC(=O)CC5=C(C6=N[C@@H](C)CC6)C(=O)NC5(C)C)n4)n3)C(C)(C)NC2=O)=N1 [compound 22]
  DNA alkylation: lack of DNA alkylation
pH 5.0, 4 h, 37° C.
  DNA interstrand cross-link (ICL) formation: failed to form DNA ICLs

## CCOC(=O)c1nc(C2(O)CNC(=O)C2C2=C(C3=N[C@@H](C)CC3)C(=O)NC23CC3)cs1 (some centres unmarked) [compound 24]
pH 5.0, 4 h, 37° C.
  DNA interstrand cross-link (ICL) formation: failed to form DNA ICLs
